# Values quoted from earlier work as cited in patent US20260091056A1, “COMPOSITIONS FOR CONTROLLING ODOR AND ITCH AND METHODS OF AND DEVICES FOR ADMINISTERING SAME” (Vireo Systems, Inc., priority 2020, published 2026).
# Conditions: at 25° C.
substance,measurement,value
boric acid,pKa value,~9.14
